Results on two compounds are retold here after EP0266640A2 (Euro-Celtique S.A., priority 1986, dated 1988).

The experiment deals with asthmatic patients. The experiment in a line: controlled triple-cross-over clinical study, body plethysmographic test of lung function (RAW, FEV1), with pulse and blood pressure. Format: in vivo. On the procedure: In a controlled triple-cross-over study, in a body phlethysmographic test of the lung function, the effectiveness of and tolerance to the individual substances compared to the combination were investigated.
The investigation was carried out on three in-patients with chronic-obstructive airway diseases.
The associated medication with dosing aerosols was reduced to a minimum and noted in a special test report. It was ensured that no aerosol was used at least eight hours prior to each lung function investigation.
The medication sequence was randomised, with a wash-out-phase of two days after each medication.
It was ensured that all the patients had received no xanthine 24 hours before the controlled investigation (lung function test and determination of reversibility).
The lung function (RAW and FEV₁) and the pulse of the patients were measured on the first and third day always at the same time of day, as shown in Fig. 3. On the third day of the investigation, after the final measurement of lung function, the reversibility was again determined, 15 minutes after inhalation of 400 microgram Fenoterol.

`CC(Cc1ccc(O)cc1)NCC(O)c1cc(O)cc(O)c1` (stereo not shown) [Fenoterol]: the “rise of FEV₁ mean-value (reversibility)” value (start of investigation, after inhalation of 400 microgram) stood at 45%. For the same compound, the FEV₁ mean-value result (start of investigation, after inhalation of 400 microgram, baseline ca. 1,5 l) is recorded as “ca. 2.2 l”. Where the note is “start of investigation, after inhalation of 400 microgram, referred to the initial value”, the “reduction of airway resistance (reversibility)” value is given as 50%.

`Cn1c(=O)c2[nH]cnc2n(C)c1=O` [Theophylline, 1,3-dimethylxanthine]: the “remaining reversibility (further improvement by inhalation of the dosing aerosol)” value (third day, after inhalation of 400 microgram Fenoterol, 10 mg Nifedipine alone or 300 mg Theophylline alone twice daily) was “still left a considerable further improvement”.
